In article PMC4303209, “A novel phosphatidylinositol 3-kinase (PI3K) inhibitor directs a potent FOXO-dependent, p53-independent cell cycle arrest phenotype characterized by the differential induction of a subset of FOXO-regulated genes” (Breast Cancer Research : BCR, 2014):

Test system: MCF-7 breast cancer cells
Experiment: Microarray gene expression analysis (Agilent whole human genome 4 x 44K; compound vs DMSO, LIMMA log2 fold change)
Format: cell-based
Settings: Apoptosis genes

With `Oc1cccc(-c2nc(N3CCOCC3)c3oc4ncccc4c3n2)c1` [PI-103] the “KALRN log2FC” value (Gene 8997) was 0.194, the “SOCS3 log2FC” value (Gene 9021) was -0.840 and the “BRSK2 log2FC” value (Gene 9024) was -0.160. The “UBE2M log2FC” value (Gene 9040) was -0.417, the “SART1 log2FC” value (Gene 9092) was -0.00235 and the “DNAJA3 log2FC” value (Gene 9093) was 0.121. The “RABEP1 log2FC” value (Gene 9135) was 0.492, the “ARHGEF2 log2FC” value (Gene 9181) was -0.509 and the “DEDD log2FC” value (Gene 9191) was -0.033. For the same compound, the “AURKB log2FC” value (Gene 9212) was -0.231, the “FAIM3 log2FC” value (Gene 9214) was -0.530 and the “DLG5 log2FC” value (Gene 9231) was -0.212. The “PNMA1 log2FC” value (Gene 9240) was 0.459, the “NOG log2FC” value (Gene 9241) was -0.308 and the “CRLF1 log2FC” value (Gene 9244) was 0.144. For the same compound, the “STK17B log2FC” value (Gene 9262) was 0.429, the “STK17A log2FC” value (Gene 9263) was 0.011 and the “BCL7C log2FC” value (Gene 9274) was -0.197. The “TAOK2 log2FC” value (Gene 9344) was -0.249, the “SLIT2 log2FC” value (Gene 9353) was 0.341 and the “SLC9A3R1 log2FC” value (Gene 9368) was -0.528. For the same compound, the “TJP2 log2FC” value (Gene 9414) was 0.196, the “NTN1 log2FC” value (Gene 9423) was -0.198 and the “ITM2B log2FC” value (Gene 9445) was 0.317. The “AIM2 log2FC” value (Gene 9447) was -0.062, the “LY86 log2FC” value (Gene 9450) was -0.203 and the “EIF2AK3 log2FC” value (Gene 9451) was 0.495. For the same compound, the “HAND2 log2FC” value (Gene 9464) was -0.691, the “ATG5 log2FC” value (Gene 9474) was -0.728 and the “ROCK2 log2FC” value (Gene 9475) was 0.195. For the same compound, the “MAPK8IP1 log2FC” value (Gene 9479) was 0.085, the “SLC25A27 log2FC” value (Gene 9481) was -0.081 and the “PSMF1 log2FC” value (Gene 9491) was -0.344. The “LITAF log2FC” value (Gene 9516) was -0.833, the “EEF1E1 log2FC” value (Gene 9521) was 0.110 and the “BAG4 log2FC” value (Gene 9530) was 0.152. For the same compound, the “BAG3 log2FC” value (Gene 9531) was -0.812, the “EI24 log2FC” value (Gene 9538) was -0.583 and the “BCAR1 log2FC” value (Gene 9564) was -0.480. The “BRE log2FC” value (Gene 9577) was -0.205, the “RNF7 log2FC” value (Gene 9616) was -0.244 and the “TRAF4 log2FC” value (Gene 9618) was -0.924. The “AATK log2FC” value (Gene 9625) was 1.492, the “IKBKE log2FC” value (Gene 9641) was -0.667 and the “PPM1F log2FC” value (Gene 9647) was -0.302. The “RAPGEF2 log2FC” value (Gene 9693) was 0.948, the “ESPL1 log2FC” value (Gene 9700) was 0.721 and the “HERPUD1 log2FC” value (Gene 9709) was 0.170. The “SLK log2FC” value (Gene 9748) was 0.857, the “BCLAF1 log2FC” value (Gene 9774) was 0.632 and the “KIAA0141 log2FC” value (Gene 9812) was 0.468. The “RB1CC1 log2FC” value (Gene 9821) was 1.484, the “ARHGEF11 log2FC” value (Gene 9826) was -0.060 and the “ARHGEF17 log2FC” value (Gene 9828) was 0.506. The “MELK log2FC” value (Gene 9833) was 0.254, the “PSMD6 log2FC” value (Gene 9861) was 0.158 and the “ARNT2 log2FC” value (Gene 9915) was 0.025. The “THOC1 log2FC” value (Gene 9984) was 0.375, the “CASP8AP2 log2FC” value (Gene 9994) was 0.614 and the “SRA1 log2FC” value (Gene 10011) was -0.916. For the same compound, the “PDCD6IP log2FC” value (Gene 10015) was 0.603, the “PDCD6 log2FC” value (Gene 10016) was -0.491 and the “BCL2L11 log2FC” value (Gene 10018) was 0.088. For the same compound, the “PARP2 log2FC” value (Gene 10038) was 0.326, the “DNAJB6 log2FC” value (Gene 10049) was 0.183 and the “DNM1L log2FC” value (Gene 10059) was 0.444. For the same compound, the “PDCD7 log2FC” value (Gene 10081) was 0.098, the “PPIF log2FC” value (Gene 10105) was -1.136 and the “FEM1B log2FC” value (Gene 10116) was -0.374. For the same compound, the “BCAP31 log2FC” value (Gene 10134) was -0.357, the “RBM5 log2FC” value (Gene 10181) was 0.638 and the “RNF41 log2FC” value (Gene 10193) was 0.278. The “PSME3 log2FC” value (Gene 10197) was -1.222, the “DHRS2 log2FC” value (Gene 10202) was 0.281 and the “TOPORS log2FC” value (Gene 10210) was 0.598. For the same compound, the “PSMD14 log2FC” value (Gene 10213) was 0.153, the “SPRY2 log2FC” value (Gene 10253) was -0.930 and the “NET1 log2FC” value (Gene 10276) was 0.503. The “UBE4B log2FC” value (Gene 10277) was -0.565, the “SAP18 log2FC” value (Gene 10284) was 0.198 and the “TRAIP log2FC” value (Gene 10293) was 0.566. The “MAEA log2FC” value (Gene 10296) was -0.106, the “PAK4 log2FC” value (Gene 10298) was -0.420 and the “RTN3 log2FC” value (Gene 10313) was -0.192. The “CITED2 log2FC” value (Gene 10370) was 2.312, the “SEMA3A log2FC” value (Gene 10371) was 0.050 and the “DLC1 log2FC” value (Gene 10395) was -1.010. The “GNB2L1 log2FC” value (Gene 10399) was -0.033, the “YAP1 log2FC” value (Gene 10413) was 0.172 and the “CFDP1 log2FC” value (Gene 10428) was 0.411. For the same compound, the “C1D log2FC” value (Gene 10438) was 0.246, the “ACAA2 log2FC” value (Gene 10449) was 0.115 and the “VAV3 log2FC” value (Gene 10451) was 2.272. For the same compound, the “STK25 log2FC” value (Gene 10494) was 0.213, the “SEMA4D log2FC” value (Gene 10507) was 0.274 and the “MYBBP1A log2FC” value (Gene 10514) was -0.303. For the same compound, the “CIB1 log2FC” value (Gene 10519) was -0.082, the “ATG7 log2FC” value (Gene 10533) was -0.414 and the “HTATIP2 log2FC” value (Gene 10553) was 0.204. For the same compound, the “ERN2 log2FC” value (Gene 10595) was -0.680, the “RBCK1 log2FC” value (Gene 10616) was -0.315 and the “STAMBP log2FC” value (Gene 10617) was 0.275. For the same compound, the “IVNS1ABP log2FC” value (Gene 10625) was 0.167, the “TXNIP log2FC” value (Gene 10628) was 2.206 and the “RRAGA log2FC” value (Gene 10670) was -0.315. For the same compound, the “PNMA2 log2FC” value (Gene 10687) was -0.058, the “CHL1 log2FC” value (Gene 10752) was 0.036 and the “NES log2FC” value (Gene 10763) was -0.277. The “PLK2 log2FC” value (Gene 10769) was -0.927, the “ZMYND11 log2FC” value (Gene 10771) was 0.395 and the “NEK6 log2FC” value (Gene 10783) was -0.675. The “NCKAP1 log2FC” value (Gene 10787) was 0.619, the “ZNF268 log2FC” value (Gene 10795) was 0.176 and the “PPP1R13L log2FC” value (Gene 10848) was 0.642. The “LILRB1 log2FC” value (Gene 10859) was -0.213, the “MRPS30 log2FC” value (Gene 10884) was 0.033 and the “PROKR1 log2FC” value (Gene 10887) was -0.254. The “PPARGC1A log2FC” value (Gene 10891) was 0.154, the “MALT1 log2FC” value (Gene 10892) was -0.458 and the “JTB log2FC” value (Gene 10899) was -0.072. The “BLCAP log2FC” value (Gene 10904) was -0.472, the “EDAR log2FC” value (Gene 10913) was -0.571 and the “RNPS1 log2FC” value (Gene 10921) was -0.284. The “FASTK log2FC” value (Gene 10922) was -0.187, the “PRDX3 log2FC” value (Gene 10935) was 0.328 and the “MLLT11 log2FC” value (Gene 10962) was -0.868. For the same compound, the “YWHAQ log2FC” value (Gene 10971) was 0.144, the “IL24 log2FC” value (Gene 11009) was -0.212 and the “RIPK3 log2FC” value (Gene 11035) was -0.030. For the same compound, the “PIM2 log2FC” value (Gene 11040) was -0.544, the “DIDO1 log2FC” value (Gene 11083) was -0.398 and the “FAF1 log2FC” value (Gene 11124) was 0.215. The “CAPN10 log2FC” value (Gene 11132) was -0.148, the “NISCH log2FC” value (Gene 11188) was 0.538 and the “CHEK2 log2FC” value (Gene 11200) was 0.111. For the same compound, the “AKAP13 log2FC” value (Gene 11214) was -0.354, the “DDX20 log2FC” value (Gene 11218) was 0.280 and the “PDCD10 log2FC” value (Gene 11235) was 0.466. The “GABARAP log2FC” value (Gene 11337) was 0.401, the “ATF5 log2FC” value (Gene 22809) was -1.254 and the “PHLDA1 log2FC” value (Gene 22822) was -2.154. The “CARD8 log2FC” value (Gene 22900) was 0.156, the “SNW1 log2FC” value (Gene 22938) was 0.538 and the “TRIM32 log2FC” value (Gene 22954) was -0.315. The “ACIN1 log2FC” value (Gene 22985) was -0.228, the “TRIM35 log2FC” value (Gene 23087) was 0.205 and the “KIF1B log2FC” value (Gene 23095) was 0.163. For the same compound, the “PSME4 log2FC” value (Gene 23198) was -0.072, the “ARHGEF9 log2FC” value (Gene 23229) was 0.137 and the “PACS2 log2FC” value (Gene 23241) was -0.041. For the same compound, the “MCF2L log2FC” value (Gene 23263) was 0.306, the “TRIM2 log2FC” value (Gene 23321) was 0.862 and the “ARHGEF12 log2FC” value (Gene 23365) was 0.170. For the same compound, the “PPP1R13B log2FC” value (Gene 23368) was 0.064, the “NCSTN log2FC” value (Gene 23385) was 0.292 and the “ADNP log2FC” value (Gene 23394) was 0.175. The “SIRT1 log2FC” value (Gene 23411) was 1.169.
